We go through one substance from patent US7125862B2, “Porphyrin-metal complexes and oxygen infusions containing the same” (Japan Science and Technology Agency, priority 2001, dated 2006).

The nature of the assay: Oxygen adsorption-desorption and oxygen affinity (P1/2) of the porphinatoiron(II) complex in toluene solution, by visible absorption spectrum. The class given is binding. The method, then: 46.2 μg (0.03 μmol) of 2-8-(2-methyl-1-imidazolyl)octanoyloxymethyl-5,10,15,20-tetrakis(α,α,α,α-o-(1-methylcyclohexylamido)phenyl)porphinatoiron(III) complex-bromide synthesized in Example 7 was prepare into 10 ml of toluene anhydride solution and the atmosphere in the system was replaced with nitrogen. Then, the solution was mixed and stirred for 2 hours with an aqueous dithionous acid solution in a heterogeneous system to reduce the iron to the iron(II) state. Under nitrogen atmosphere, the toluene layer was extracted, dried over sodium sulfate anhydride and filtrated. The resulting toluene solution was transferred to and sealed in a measuring cell. Thus, a toluene solution of 2-8-(2-methyl-1-imidazolyl)octanoyloxymethyl-5,10,15,20-tetrakis(α,α,α,α-o-(1-methylcyclohexylamido)phenyl)porphinatoiron(II) complex was obtained. The visible absorption spectrum of this solution was λmax: 441, 539, 558 nm, and corresponded to that of a five-coordinated deoxy-type complex in which one imidazole was coordinated.
When oxygen gas was blown into this solution, the spectrum immediately changed to λmax: 424, 552 nm.
Consequently, the adsorption-desorption of oxygen could be continuously carried out by repeating the operation of blowing oxygen and then nitrogen.

For the substance “2-8-(2-methyl-1-imidazolyl)octanoyloxymethyl-5,10,15,20-tetrakis(α,α,α,α-o-(1-methylcyclohexylamido)phenyl)porphinatoiron(II) complex [Example 11]”, the “oxygen affinity (partial pressure of oxygen when 50% of the entire porphinatoiron is oxygenated (=P1/2))” value (25° C.) turned out to be 20 torr. Further, the “reversibility of adsorption-desorption of oxygen” value (oxygen blown, then nitrogen gas for 1 minute, visible absorption spectrum) is “adsorption-desorption of oxygen occurred reversibly”.
